What all share (assay type): cell-based
A short description of experiment [1]: Sensitizer effect of short lipoamines (our studies). The source says:
R1 in formula I represents a linear or branched alkyl group comprising at least 7 atoms in a straight chain. In this context alkyl group means that it is a group containing carbon atoms. For instance, for the lipoamines butylamine, pentylamine and hexylamine as disclosed in JP 57155954 no effect was found in our studies. It is understood that if not specified otherwise, C, O, N and S atoms in the alkyl group further comprise hydrogen atoms to properly satisfy the valency of the respective atom. At least 7 atoms in a straight chain is with respect to the longest group of atoms, not including hydrogen, directly connected to one another by covalent bonds starting from the nitrogen (N) in formula I. Such a group of at least 7 atoms in a straight chain thus can be part of cyclic elements, including aromatic rings, in R1, or in other words, one or more (saturated and/or unsaturated) rings can form (part of) the alkyl group comprising at least 7 atoms in a straight chain. The alkyl group may comprise one or more O, N and/or S atoms, which means that the chain of carbon atoms may be interrupted by one or more O, N and/or S atoms. It is preferred the alkyl group comprises an ω-CH3 group, or in other words starting from the nitrogen (N) in formula I the longest alkyl group preferably ends with a CH3.

For experiment [2], the system named is extended β-lactamase (ESBL) producing Klebsiella pneumoniae LUH5344. Put plainly: Growth inhibition (MIC) of ESBL producing K. pneumoniae LUH5344. Particulars: K. pneumoniae LUH5344, 100% LB.
Experiment [3] concerns ceftazidime-resistant P. aeruginosa clinical isolate PA 24-7-3. Description: Growth inhibition (MIC) of ceftazidime-resistant P. aeruginosa PA 24-7-3. Particulars: Pseudomonas aeruginosa, PA 24-7-3, 20% LB.
In experiment [4] the test system is Pseudomonas aeruginosa PA01. Put plainly: Growth inhibition (MIC, OD550 after 20 h) of P. aeruginosa PA01. Particulars: for MIC: Pseudomonas aeruginosa; for MIC of antibiotic: PA01, inoculum 10^4 bacteria in 20% LB, after 20 h, antibiotic alone (Table 3); for MIC of antibiotic alone: antibiotic alone (Table 1).
Experiment [5] concerns multidrug-resistant Acinetobacter baumannii LUH5771. Description: Growth inhibition of multidrug-resistant A. baumannii LUH5771. Particulars: for Susceptibility of the isolate to treatment: multi-resistant A. baumannii clinical isolate.
For experiment [6], the system named is P. aeruginosa clinical isolate PA7243. Description: Growth inhibition (MIC) of clinical P. aeruginosa isolate PA7243. Particulars: Pseudomonas aeruginosa, isolate PA7243, 10^4 bacteria in 20% LB, 20 h.
For experiment [7], the system named is P. aeruginosa clinical isolate PA7247. Put plainly: Growth inhibition (MIC) of clinical P. aeruginosa isolate PA7247. Particulars: Pseudomonas aeruginosa, isolate PA7247, 10^4 bacteria in 20% LB, 20 h.
Experiment [8] deals with P. aeruginosa clinical isolate PA7249. Description: Growth inhibition (MIC) of clinical P. aeruginosa isolate PA7249. Particulars: Pseudomonas aeruginosa, isolate PA7249, 10^4 bacteria in 20% LB, 20 h.
In experiment [9] the test system is P. aeruginosa clinical isolate PA7252. Description: Growth inhibition (MIC) of clinical P. aeruginosa isolate PA7252. Particulars: Pseudomonas aeruginosa, isolate PA7252, 10^4 bacteria in 20% LB, 20 h.
The subject of experiment [10] is P. aeruginosa clinical isolate PA7253. Description: Growth inhibition (MIC) of clinical P. aeruginosa isolate PA7253. Particulars: Pseudomonas aeruginosa, isolate PA7253, 10^4 bacteria in 20% LB, 20 h.
Setting [11] is: PA01, 20% LB, 20 h, sensitizer alone.

Like-named read-outs stand apart in the source and are kept apart here.

Turning to `CCCCCN` [pentylamine], the “Sensitizer effect” value in experiment [1] was “no effect”.
On to `CC(C)(O/N=C(\C(=O)N[C@@H]1C(=O)N2C(C(=O)[O-])=C(C[n+]3ccccc3)CS[C@H]12)c1csc(N)n1)C(=O)O` [ceftazidime], for which the MIC in [2] (read-out: MIC ceftazidime) and in experiment [3] (read-out: MIC ceftazidime) was 6.25 µg/mL each time.
Consider `CCCCCCCCCCCCCCCCCCN` [stearylamine], for which, in experiment [4] (setting [11]), the MIC is not below 20 µM.
Take `CCn1cc(C(=O)O)c(=O)c2ccc(C)nc21` [nalidixic acid]: the MIC of antibiotic in experiment [4] turned out to be 25 µg/mL.
Turning to `CC/C(=C(\c1ccccc1)c1ccc(OCCN(C)C)cc1)c1ccccc1` [tamoxifen], the MIC in experiment [4] (setting [11]) was not below 20 µM.
In experiment [5] (A. baumannii LUH5771, gentamicin alone), gentamicin gave an MIC gentamicin of more than 200 µg·mL. The “Susceptibility of the isolate to treatment” value (from here on “Susceptibility of the isolate”) in experiment [5] is on record as “resistant”.
`CCCCCCCC/C=C\CCCCCCCCN` [oleylamine]: the MIC in experiment [4] (setting [11]) was not below 20 µM; in [6] (read-out: MIC oleylamine), more than 40 µM; in experiment [7] (read-out: MIC oleylamine) it was not below 40 µM; in experiment [8] (read-out: MIC oleylamine), more than 40 µM; in experiment [9] (read-out: MIC oleylamine) it was not below 40 µM; in experiment [10] (read-out: MIC oleylamine) it was more than 40 µM. Also, the results for the MIC in [2] (read-out: MIC oleylamine) and in experiment [3] (read-out: MIC oleylamine) were not below 40 µM and not below 20 µM, respectively. For the same compound, in experiment [5] (A. baumannii LUH5771, oleylamine alone), the oleylamine bactericidal concentration result is given as “at ≧5 μM”. The “Susceptibility of the isolate” value in [5] is “resistant”.
On to `CCCCCCN` [hexylamine], for which the “Sensitizer effect” value in experiment [1] is “no effect”.
On to `CC(C)c1ccc2c(c1)CC[C@H]1[C@](C)(CN)CCC[C@]21C` [dehydroabietylamine], for which the “MIC of sensitizer alone” value in experiment [4] (setting [11]) is on record as “MIC at ≧20 μM”.
On to `CCCCN` [butylamine], for which the “Sensitizer effect” value in experiment [1] is reported as “no effect”.
Regarding `CC(=O)NC[C@H]1CN(c2ccc(N3CCOCC3)c(F)c2)C(=O)O1` [linezolid], in [4] (PA01, 20% LB, 20 h), the “MIC of antibiotic alone” value was “MIC >200 ug/mL μg/mL”.
As for `CC1(C)S[C@@H]2[C@H](NC(=O)[C@H](N)c3ccccc3)C(=O)N2[C@H]1C(=O)O` [ampicillin], the “MIC of antibiotic alone” value in experiment [4] (PA01, 20% LB, 20 h) is reported as “MIC >200 μg/mL”. Further, in [4], the MIC of antibiotic was more than 200 µg/mL. The MIC in experiment [6] (read-out: MIC ampicillin), in [7] (read-out: MIC ampicillin), in experiment [8] (read-out: MIC ampicillin), in experiment [9] (read-out: MIC ampicillin) and in experiment [10] (read-out: MIC ampicillin) was more than 200 µg/mL in each case. Moreover, the “Susceptibility of the isolate” value in experiment [5] was “resistant”.

As a reminder, the MIC is the smallest concentration in the dilution series that meets the test's criterion for growth inhibition.

Source of the values: US20090318403A1, “ANTIBIOTIC COMPOSITION” (Prosensa Technologies B.V., priority 2006, published 2009).
